Results as given in patent US20250197407A1 (Jazz Pharmaceuticals Ireland Limited, priority 2022, published 2025).

Target: SOS1/KRAS WT (Homo sapiens (Human), UniProt Q07889)
Experiment: SOS1/KRAS WT HTRF binding assay (FRET-based protein-protein interaction)
Details: inhibition of His6-SOS1 (aa564-1049, 40 nM) binding to GST-KRAS-WT (aa1-188, 40 nM); at least two independent replicates; read-out: SOS1/KRAS WT HTRF Binding assay pIC50 (converted)
Method in brief: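 GST-KRAS WT (aa1-188, 40 nM) and His6-SOS1 exchange domain (aa564-1049, 40 nM) were incubated 60 min at room temperature with compound dose response in HEPES pH7.3 buffer with 10 mM EDTA and 100 mM KF. Anti-GST-Eu(K)/anti-6His-XL665 HTRF was read after 4 hr, and IC50 came from a four-parameter fit (≥2 replicates).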

SOS1/KRAS WT, sequence (Q07889 564-1049): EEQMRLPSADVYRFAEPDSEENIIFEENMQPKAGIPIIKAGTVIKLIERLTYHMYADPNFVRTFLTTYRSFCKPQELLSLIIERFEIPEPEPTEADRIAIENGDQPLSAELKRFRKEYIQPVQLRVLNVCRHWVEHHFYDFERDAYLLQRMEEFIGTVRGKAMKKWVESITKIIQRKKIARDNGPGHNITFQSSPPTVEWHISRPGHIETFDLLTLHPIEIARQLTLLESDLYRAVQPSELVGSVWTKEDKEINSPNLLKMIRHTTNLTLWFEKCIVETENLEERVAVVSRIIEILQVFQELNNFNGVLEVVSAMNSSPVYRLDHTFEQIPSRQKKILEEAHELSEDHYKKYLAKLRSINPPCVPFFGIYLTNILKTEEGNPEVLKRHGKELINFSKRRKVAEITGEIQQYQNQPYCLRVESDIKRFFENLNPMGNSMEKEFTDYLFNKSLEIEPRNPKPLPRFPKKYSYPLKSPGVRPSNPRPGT

Structure (SMILES) | IC50 [nM]
Cc1c([C@@H](C)Nc2nnc(C)c3cc4c(cc23)N(C)C(=O)C4(C)C)cccc1C(F)(F)C(C)(C)O [Compound 108, 1,3,3,5-tetramethyl-8-[[(1R)-1-[3-(1,1-difluoro-2-hydroxy-2-methyl-propyl)-2-methyl-phenyl]ethyl]amino]pyrrolo[2,3-g]phthalazin-2-one] | 10.5
Cc1nnc(N[C@H](C)c2cccc(C(F)(F)CO)c2F)c2cc3c(cc12)C(C)(C)C(=O)N3C [Compound 109, 1,3,3,5-tetramethyl-8-[[(1R)-1-[3-(1,1-difluoro-2-hydroxy-ethyl)-2-fluoro-phenyl]ethyl]amino]pyrrolo[2,3-g]phthalazin-2-one] | 7.08
Cc1nnc(N[C@H](C)c2cccc(C(F)(F)CO)c2F)c2cc3c(cc12)C(C)(C)C(=O)N3C(C)C [Compound 110, 1-isopropyl-3,3,5-trimethyl-8-[[(1R)-1-[3-(1,1-difluoro-2-hydroxy-ethyl)-2-fluoro-phenyl]ethyl]amino]pyrrolo[2,3-g]phthalazin-2-one] | 7.08
Cc1nnc(N[C@H](C)c2cccc(C(F)(F)C(C)(C)O)c2F)c2cc3c(cc12)C(C)(C)C(=O)N3C(C)C [Compound 111, 1-isopropyl-3,3,5-trimethyl-8-[[(1R)-1-[3-(1,1-difluoro-2-hydroxy-2-methyl-propyl)-2-fluoro-phenyl]ethyl]amino]pyrrolo[2,3-g]phthalazin-2-one] | 7.41
Cc1nnc(N[C@H](C)c2cccc(C(F)(F)CO)c2)c2cc3c(cc12)C1(CCOCC1)C(=O)N3C1CC1 [Compound 112, 1-cyclopropyl-5-methyl-8-[[(1R)-1-[3-(1,1-difluoro-2-hydroxy-ethyl)phenyl]ethyl]amino]spiro [pyrrolo[2,3-g]phthalazine-3,4′-tetrahydropyran]-2-one] | 11
COCC1(C)C(=O)N(C)c2cc3c(N[C@H](C)c4cccc(C(F)(F)C(C)(C)O)c4C)nnc(C)c3cc21 (stereo partly drawn) [Compound 113, 8-[[(1R)-1-[3-(1,1-difluoro-2-hydroxy-2-methyl-propyl)-2-methyl-phenyl]ethyl]amino]-3-(methoxymethyl)-1,3,5-trimethyl-pyrrolo[3,2-g]phthalazin-2-one] | 13.5
Cc1nnc(N[C@H](C)c2cccc(C(F)(F)CO)c2F)c2cc3c(cc12)C1(CCOCC1)C(=O)N3C1CC1 [Compound 114, 1-cyclopropyl-5-methyl-8-[[(1R)-1-[3-(1,1-difluoro-2-hydroxy-ethyl)-2-fluoro-phenyl]ethyl]amino]spiro[pyrrolo [2,3-g]phthalazine-3,4′-tetrahydropyran]-2-one] | 9.12
Cc1nnc(N[C@H](C)c2cccc(C(F)(F)C(C)(C)O)c2F)c2cc3c(cc12)N(C)C(=O)C31CCOCC1 [Compound 115, 1,8-dimethyl-5-[[(1R)-1-[3-(1,1-difluoro-2-hydroxy-2-methyl-propyl)-2-fluoro-phenyl]ethyl]amino]spiro[pyrrolo[3,2-g]phthalazine-3,4′-tetrahydropyran]-2-one] | 6.61
Cc1nnc(N[C@H](C)c2cccc(C(F)(F)CO)c2F)c2cc3c(cc12)N(C)C(=O)C31CCOCC1 [Compound 116, 1,8-dimethyl-5-[[(1R)-1-[3-(1,1-difluoro-2-hydroxy-ethyl)-2-fluoro-phenyl]ethyl]amino]spiro[pyrrolo [3,2-g]phthalazine-3,4′-tetrahydropyran]-2-one] | 6.61
COC1(C)C(=O)N(C2CC2)c2cc3c(N[C@H](C)c4cccc(C(F)(F)C(C)(C)O)c4)nnc(C)c3cc21 (stereo partly drawn) [Compound 117, 1-cyclopropyl-3-methoxy-3,5-dimethyl-8-[[(1R)-1-[3-(1,1-difluoro-2-hydroxy-2-methyl-propyl)phenyl]ethyl]amino]pyrrolo [2,3-g]phthalazin-2-one] | 9.55
Cc1nnc(N[C@H](C)c2cccc(C(F)(F)CN)c2F)c2cc3c(cc12)C(C)(C)C(=O)N3C [Compound 118, 1,3,3,5-tetramethyl-8-[[(1R)-1-[3-(2-amino-1,1-difluoro-ethyl)-2-fluoro-phenyl]ethyl]amino]pyrrolo[2,3-g]phthalazin-2-one] | 11.5
Cc1c([C@@H](C)Nc2nnc(C)c3cc4c(cc23)N(C2CC2)C(=O)C42CCOCC2)cccc1C(F)(F)CO [Compound 119, 1-cyclopropyl-5-methyl-8-[[(1R)-1-[3-(1,1-difluoro-2-hydroxy-ethyl)-2-methyl-phenyl]ethyl]amino]spiro[pyrrolo [2,3-g]phthalazine-3,4′-tetrahydropyran]-2-one] | 7.41
Cc1nnc(N[C@H](C)c2cccc(C(F)(F)C(C)(C)O)c2)c2cc3c(cc12)C1(CCOCC1)C(=O)N3C1CC1 [Compound 120, 1-cyclopropyl-5-methyl-8-[[(1R)-1-[3-(1,1-difluoro-2-hydroxy-2-methyl-propyl)phenyl]ethyl]amino]spiro [pyrrolo[2,3-g]phthalazine-3,4′-tetrahydropyran]-2-one] | 10.5
Cc1nnc(N[C@H](C)c2cccc(C(F)(F)C(C)(C)O)c2F)c2cc3c(cc12)C1(CCOCC1)C(=O)N3C1CC1 [Compound 121, 1-cyclopropyl-5-methyl-8-[[(1R)-1-[3-(1,1-difluoro-2-hydroxy-2-methyl-propyl)-2-fluoro-phenyl]ethyl]amino]spiro[pyrrolo [2,3-g]phthalazine-3,4′-tetrahydropyran]-2-one] | 6.31
COC1(C)C(=O)N(C2CC2)c2cc3c(N[C@H](C)c4cccc(C(F)(F)CO)c4F)nnc(C)c3cc21 (stereo partly drawn) [Compound 122, 1-cyclopropyl-3-methoxy-3,5-dimethyl-8-[[(1R)-1-[3-(1,1-difluoro-2-hydroxy-ethyl)-2-fluoro-phenyl]ethyl]amino]pyrrolo[2,3-g]phthalazin-2-one] | 5.75
Cc1nnc(N[C@H](C)c2cccc(C(F)(F)CO)c2F)c2cc3c(cc12)C(C)(C)C(=O)N3C1CC1 [Compound 123, 1-cyclopropyl-3,3,5-trimethyl-8-[[(1R)-1-[3-(1,1-difluoro-2-hydroxy-ethyl)-2-fluoro-phenyl]ethyl]amino]pyrrolo[2,3-g]phthalazin-2-one] | 8.71
Cc1c([C@@H](C)Nc2nnc(C)c3cc4c(cc23)N(C(C)C)C(=O)C4(C)C)cccc1C(F)(F)C(C)(C)O [Compound 124, 1-isopropyl-3,3,5-trimethyl-8-[[(1R)-1-[3-(1,1-difluoro-2-hydroxy-2-methyl-propyl)-2-methyl-phenyl]ethyl]amino]pyrrolo[2,3-g]phthalazin-2-one] | 6.17
Cc1nnc(N[C@H](C)c2cccc(C(F)(F)C(C)(C)O)c2)c2cc3c(cc12)N(C)C(=O)C31CCOCC1 [Compound 125, 1,8-dimethyl-5-[[(1R)-1-[3-(1,1-difluoro-2-hydroxy-2-methyl-propyl)phenyl]ethyl]amino]spiro [pyrrolo[3,2-g]phthalazine-3,4′-tetrahydropyran]-2-one] | 6.61
CCOC1(C)C(=O)N(C)c2cc3c(N[C@H](C)c4cccc(C(F)(F)C(C)(C)O)c4C)nnc(C)c3cc21 (stereo partly drawn) [Compound 126, 3-ethoxy-1,3,5-trimethyl-8-[[(1R)-1-[3-(1,1-difluoro-2-hydroxy-2-methyl-propyl)-2-methyl-phenyl]ethyl]amino]pyrrolo[2,3-g]phthalazin-2-one] | 9.12
